Measurements as given in patent US20240207258A1, “HETEROCYCLIC PDK1 INHIBITORS FOR USE TO TREAT CANCER” (Viracta Therapeutics, Inc., priority 2015, published 2024).

Columns and labels:
[1] = test system: Mec-1; test: MTS cell proliferation assay, Mec-1; assay type: cell-based; conditions: Homo sapiens, MEC1; Mec-1, 72 hr
Protocol: (§1) Cell proliferation was measured using the CellTiter 96 Aqueous Non-Radioactive Cell Proliferation Assay (Promega). The CellTiter 96® AQueous Assay is composed of solutions of a tetrazolium compound [3-(4,5-dimethylthiazol-2-yl)-5-(3-carboxymethoxyphenyl)-2-(4-sulfophenyl)-2H-tetrazolium, inner salt; MTS] and an electron coupling reagent (phenazine methosulfate) PMS. MTS is bioreduced by cells into a formazan product that is soluble in tissue culture medium. The absorbance of the formazan product at 490 nm can be measured directly from assay plates without additional processing. The quantity of formazan product as measured by the amount of 490 nm absorbance is directly proportional to the number of living cells in culture. Cells were seeded into 96-well or 384-well clear plates in a volume of 200 μL (96-well) or 50 μL (384-well) at optimized densities ranging from 1,000 to 40,000 cells per well for 96-well plates or 1,200 to 25,000 cells per well for 384-well plates depending on cell-line. After 4-6 hr recovery, serially diluted compounds in DMSO were added to the cells using (0.1% v/v final DMSO concentration). Cells were then grown at 37° C. in a humidified incubator with 5% CO2 for 72 hr. A 20:1 [3-(4,5-dimethylthiazol-2-yl)-5-(3-carboxymethoxyphenyl)-2-(4-sulfophenyl)-2H-tetrazolium](MTS):phenazine methosulfate (PMS) solution in DPBS was made immediately before use, added to each well, and cells were incubated for 1.5 hr at 37° C. The absorbance at 490 nm was then measured using a platereader. Absorbance values were normalized as percent of control (cells incubated in the presence of 0.1% v/v DMSO). Sigmoidal dose-response curves were plotted using log(inhibitor) vs. response—Variable slope (four parameters) model with a top value constrained to 100% (GraphPad Prism version 6.00 for Windows, GraphPad Software, La Jolla California USA). […] Curves for compounds that reached a plateau were matched exactly to the measurement points. […]

[2] = test system: Z-138; test: MTS cell proliferation assay, Z-138; assay type: cell-based; conditions: Homo sapiens; Z-138, 72 hr
Protocol: as §1

[3] = test system: Jeko; test: MTS cell proliferation assay, Jeko; assay type: cell-based; conditions: Homo sapiens, 72 hr
Protocol: (§2) Cell proliferation was measured using the CellTiter 96 Aqueous Non-Radioactive Cell Proliferation Assay (Promega). The CellTiter 96® AQueous Assay is composed of solutions of a tetrazolium compound [3-(4,5-dimethylthiazol-2-yl)-5-(3-carboxymethoxyphenyl)-2-(4-sulfophenyl)-2H-tetrazolium, inner salt; MTS] and an electron coupling reagent (phenazine methosulfate) PMS. MTS is bioreduced by cells into a formazan product that is soluble in tissue culture medium. The absorbance of the formazan product at 490 nm can be measured directly from assay plates without additional processing. The quantity of formazan product as measured by the amount of 490 nm absorbance is directly proportional to the number of living cells in culture. Cells were seeded into 96-well or 384-well clear plates in a volume of 200 μL (96-well) or 50 μL (384-well) at optimized densities ranging from 1,000 to 40,000 cells per well for 96-well plates or 1,200 to 25,000 cells per well for 384-well plates depending on cell-line. After 4-6 hr recovery, serially diluted compounds in DMSO were added to the cells using (0.1% v/v final DMSO concentration). Cells were then grown at 37° C. in a humidified incubator with 5% CO2 for 72 hr. A 20:1 [3-(4,5-dimethylthiazol-2-yl)-5-(3-carboxymethoxyphenyl)-2-(4-sulfophenyl)-2H-tetrazolium](MTS):phenazine methosulfate (PMS) solution in DPBS was made immediately before use, added to each well, and cells were incubated for 1.5 hr at 37° C. The absorbance at 490 nm was then measured using a platereader. Absorbance values were normalized as percent of control (cells incubated in the presence of 0.1% v/v DMSO). Sigmoidal dose-response curves were plotted using log(inhibitor) vs. response—Variable slope (four parameters) model with a top value constrained to 100% (GraphPad Prism version 6.00 for Windows, GraphPad Software, La Jolla California USA). […] Curves for compounds that reached a plateau were matched exactly to the measurement points. […] To determine potential of compounds of the invention to affect viability of hematological cancers, cell lines representing various tumor types were selected and tested. Human cell lines tested were: MOLM-13 (acute myeloid leukemia (AML)), MV4-11 (AML), U-2932 (ABC-diffuse large B cell lymphoma), U-937 (histiocytic lymphoma), U-266 (multiple myeloma), RPMI-8226 (multiple myeloma), CMK (megakaryoblastic cell line), SU-DHL-4 (GCB-diffuse large B cell lymphoma), KG1 (AML), Mec-1 (chronic B-cell leukemia), MOLM-16 (AML), Jeko (B-cell lymphoma), WSU-DLCL2 (B-cell lymphoma), JJN3 (plasma cell leukemia), SU-DHL-6 (GCB-diffuse large B cell lymphoma), and Z-138 (mantle cell lymphoma). In addition, two murine cell lines were tested: A20 […].

[4] = test system: Molm-13; test: MTS cell proliferation assay, Molm-13; assay type: cell-based; conditions: Homo sapiens; Molm-13, 72 hr
Protocol: as §2

[5] = test system: C1498; test: MTS cell proliferation assay, C1498; assay type: cell-based, murine; conditions: Mus musculus; for EC50: C1498, 72 hr, read-out: MTS proliferation assay
Protocol: Cell proliferation was measured using the CellTiter 96 Aqueous Non-Radioactive Cell Proliferation Assay (Promega). […] MTS is bioreduced by cells into a formazan product that is soluble in tissue culture medium. The absorbance of the formazan product at 490 nm can be measured directly from assay plates without additional processing. The quantity of formazan product as measured by the amount of 490 nm absorbance is directly proportional to the number of living cells in culture. Cells were seeded into 96-well or 384-well clear plates in a volume of 200 μL (96-well) or 50 μL (384-well) at optimized densities ranging from 1,000 to 40,000 cells per well for 96-well plates or 1,200 to 25,000 cells per well for 384-well plates depending on cell-line. After 4-6 hr recovery, serially diluted compounds in DMSO were added to the cells using (0.1% v/v final DMSO concentration). Cells were then grown at 37° C. in a humidified incubator with 5% CO2 for 72 hr. A 20:1 [3-(4,5-dimethylthiazol-2-yl)-5-(3-carboxymethoxyphenyl)-2-(4-sulfophenyl)-2H-tetrazolium](MTS):phenazine methosulfate (PMS) solution in DPBS was made immediately before use, added to each well, and cells were incubated for 1.5 hr at 37° C. The absorbance at 490 nm was then measured using a platereader. Absorbance values were normalized as percent of control (cells incubated in the presence of 0.1% v/v DMSO). Sigmoidal dose-response curves were plotted using log(inhibitor) vs. response—Variable slope (four parameters) model with a top value constrained to 100% (GraphPad Prism version 6.00 for Windows, GraphPad Software, La Jolla California USA). […] To determine potential of compounds of the invention to affect viability of hematological cancers, cell lines representing various tumor types were selected and tested. […] In addition, two murine cell lines were tested: A20 […].

Row | SMILES | EC50 [1] [nM] | EC50 [2] [nM] | EC50 [3] [nM] | EC50 [4] [nM] | EC50 [5] [nM] | inhibition at 0.2 µM ([5]; C1498, 200 nM, read-out: growth inhibition) [%]
1 | C[C@H](NC(=O)c1nc(C#N)cnc1NCc1ccc(-c2cnc3[nH]nc(N)c3n2)cc1)c1ccc(F)c(F)c1 [Compound 1, 3-[4-(3-Amino-1H-pyrazolo[3,4-b]pyrazin-5-yl)-benzylamino]-6-cyano-pyrazine-2-carboxylic acid [1-(3,4-difluoro-phenyl)-ethyl]-amide] | 415 | 718 | 286 | 6 | 53 | –
2 | CNc1n[nH]c2ncc(-c3ccc(CNc4ncc(C#N)nc4C(=O)N[C@@H](C)c4ccc(F)c(F)c4)cc3)cc12 [Compound 2, 6-Cyano-3-[4-(3-methylamino-1H-pyrazolo[3,4-b]pyridin-5-yl)-benzylamino]-pyrazine-2-carboxylic acid [1-(3,4-difluoro-phenyl)-ethyl]-amide] | 215 | 684 | 279 | 3 | 45 | 80
